Measured values as given in patent US6632816B1, “Aromatic derivatives as HIV aspartyl protease inhibitors” (Pharmacor Inc., priority 2002, dated 2003).

These compounds were tested against HIV protease (Human immunodeficiency virus type 1 group M subtype B, UniProt P04585) (assay: biochemical).
Description: Enzymatic Assay for Determining the Inhibition Constant (Ki) of Synthetic Compounds Targeting the HIV Protease
This is a fluorometric assay based on the cleavage by protease of a substrate carrying a donor group (EDANS) and an acceptor group (DABCYL) on each side of the cleavage site, interacting together through fluorescence resonance energy transfer (FRET) as described by Matayoshi et al. (Science 247:954-954, 1990).
After calculation of Vo and Vi, the inhibition constant (Ki) of the compound is determined using the equation of Henderson: [formula]
where Vo=the enzyme's initial velocity
Vi=the enzyme velocity in the presence of the inhibitory compound,
[I]=inhibitor concentration, [S]=substrate concentration,
Km=Michaelis-Menten constant and Kiapp=apparent Ki
Graphs are traced and the Ki determined using GraphPad Prism software v.

SMILES | Ki [nM]
CCN[C@@H](Cc1ccc2ccccc2c1)C(=O)NCCCC[C@@H](CO)N(CC(C)C)S(=O)(=O)c1ccc(N)cc1 [Example 65, (2S,5S)-N-{5-[(4-Amino-benzenesulfonyl)-isobutyl-amino]-6-hydroxy-hexyl}-2-ethylamino-3-naphthalen-2-yl-propionamide] | 6.2
CCCCN[C@@H](Cc1ccc2ccccc2c1)C(=O)NCCCC[C@@H](CO)N(CC(C)C)S(=O)(=O)c1ccc(N)cc1 [Example 68, (2S,5S)-N-{5-[(4-Amino-benzenesulfonyl)-isobutyl-amino]-6-hydroxy-hexyl}-2-butylamino-3-naphthalen-2-yl-propionamide] | 5.8
CC(C)CN([C@H](CO)CCCCNC(=O)[C@H](Cc1ccc2ccccc2c1)NCC(C)(C)C)S(=O)(=O)c1ccc(N)cc1 [Example 69, (2S,5S)-N-{5-[(4-Amino-benzenesulfonyl)-isobutyl-amino]-6-hydroxy-hexyl}-2-(2,2-dimethyl-propylamino)-3-naphthalen-2-yl-propionamide] | 22
CC(C)CN([C@H](CO)CCCCNC(=O)[C@H](Cc1ccc2ccccc2c1)NCc1ccccn1)S(=O)(=O)c1ccc(N)cc1 [Example 70, (2S,5S)-N-{5-[(4-Amino-benzenesulfonyl)-isobutyl-amino]-6-hydroxy-hexyl}-3-naphthalen-2-yl-2-[(pyridin-2-ylmethyl)-amino]-propionamide] | 4.9
CC(C)CN([C@H](CO)CCCCNC(=O)[C@@H](N)C(c1ccccc1)c1ccccc1)S(=O)(=O)c1ccc(N)cc1 [Example 72, (2S,5S)-2-Amino-N-{5-[(4-amino-benzenesulfonyl)-isobutyl-amino]-6-hydroxy-hexyl}-3,3-diphenyl-propionamide] | 7.5
CC(C)CN([C@H](CO)CCCCNC(=O)[C@@H](N)Cc1ccc2ccccc2c1)S(=O)(=O)c1ccc(F)c(N)c1 [Example 81, (2S,5S)-2-Amino-N-{5-[(3-amino-4-fluoro-benzenesulfonyl)-isobutyl-amino]-6-hydroxy-hexyl}-3-naphthalen-2-yl-propionamide] | < 3.8
COC(=O)N[C@@H](Cc1ccc2ccccc2c1)C(=O)NCCCC[C@@H](CO)N(CC(C)C)S(=O)(=O)c1ccc(F)c(N)c1 [Example 82, (1S,5S)-(1-{5-[(3-Amino-4-fluoro-benzenesulfonyl)-isobutyl-amino]-6-hydroxy-hexylcarbamoyl}-2-naphthalen-2-yl-ethyl)-carbamic Acid Methyl Ester] | < 3.8
CC(C)CN([C@H](CO)CCCCNC(=O)[C@H](Cc1ccc2ccccc2c1)NC(=O)c1cccnc1)S(=O)(=O)c1ccc(F)c(N)c1 [Example 83] | < 3.8
CC(C)CN([C@H](CO)CCCCNC(=O)[C@H](Cc1ccc2ccccc2c1)NC(=O)c1ccncc1)S(=O)(=O)c1ccc(F)c(N)c1 [Example 84, (1S,5S)-N-(1-{5-[(3-Amino-4-fluoro-benzenesulfonyl)-isobutyl-amino]-6-hydroxy-hexylcarbamoyl}-2-naphthalen-2-yl-ethyl)-isonicotinamide] | < 3.8
CC(C)CN([C@H](CO)CCCCNC(=O)[C@H](Cc1ccc2ccccc2c1)NC(=O)C1CCOC1)S(=O)(=O)c1ccc(F)c(N)c1 (stereo partly drawn) [Example 85, (1S,5S)-Tetrahydro-furan-3-carboxylic Acid (1-{5-[(3-Amino-4-fluoro-benzenesulfonyl)-isobutyl-amino]-6-hydroxy-hexylcarbamoyl}-2-naphthalen-2-yl-ethyl)-amide] | < 3.8
CC(C)CN([C@H](CO)CCCCNC(=O)[C@H](Cc1ccc2ccccc2c1)NC(=O)N(C)C)S(=O)(=O)c1ccc(F)c(N)c1 [Example 86, (2S,5S)-N-{5-[(3-Amino-4-fluoro-benzenesulfonyl)-isobutyl-amino]-6-hydroxy-hexyl}-2-(3,3-dimethyl-ureido)-3-naphthalen-2-yl-propionamide] | < 3.8
CC(C)CN([C@H](CO)CCCCNC(=O)[C@H](Cc1ccc2ccccc2c1)NC(=O)C1CC1)S(=O)(=O)c1ccc(F)c(N)c1 [Example 87, (1S,5S)-Cyclopropanecarboxylic Acid (1-{5-[(3-Amino-4-fluoro-benzenesulfonyl)-isobutyl-amino]-6-hydroxy-hexylcarbamoyl}-2-naphthalen-2-yl-ethyl)-amide] | < 3.8
CC(C)CN([C@H](CO)CCCCNC(=O)[C@H](Cc1ccc2ccccc2c1)NC(=O)C1CCCCC1)S(=O)(=O)c1ccc(F)c(N)c1 [Example 88, (1S,5S)-Cyclohexanecarboxylic Acid (1-{5-[(3-Amino-4-fluoro-benzenesulfonyl)-isobutyl-amino]-6-hydroxy-hexylcarbamoyl}-2-naphthalen-2-yl-ethyl)-amide] | < 3.8
CC(=O)N[C@@H](Cc1ccc2ccccc2c1)C(=O)NCCCC[C@@H](CO)N(CC(C)C)S(=O)(=O)c1ccc(F)c(N)c1 [Example 89, (2S,5S)-2-Acetylamino-N-{5-[(3-amino-4-fluoro-benzenesulfonyl)-isobutyl-amino]-6-hydroxy-hexyl}-3-naphthalen-2-yl-propionamide] | < 3.8
CC(C)CN([C@H](CO)CCCCNC(=O)[C@H](Cc1ccc2ccccc2c1)NC(=O)OC(C)(C)C)S(=O)(=O)c1ccc(F)c(N)c1 [Example 90, (1S,5S)-(1-{5-[(3-Amino-4-fluoro-benzenesulfonyl)-isobutyl-amino]-6-hydroxy-hexylcarbamoyl}-2-naphthalen-2-yl-ethyl)-carbamic Acid tert-Butyl Ester] | 4
CC(C)CN([C@H](CO)CCCCNC(=O)[C@H](Cc1ccc2ccccc2c1)NC(=O)OC(C)(C)C)S(=O)(=O)c1ccc(N)c(F)c1 [Example 91, (1S,5S)-(1-{5-[(4-Amino-3-fluoro-benzenesulfonyl)-isobutyl-amino]-6-hydroxy-hexylcarbamoyl}-2-naphthalen-2-yl-ethyl)-carbamic Acid tert-Butyl Ester] | < 3.8
CC(C)CN([C@H](CO)CCCCNC(=O)[C@@H](NC(=O)N(C)C)C(c1ccccc1)c1ccccc1)S(=O)(=O)c1ccc(N)cc1 [Example 94, (2S,5S)-N-{5-[(4-Amino-benzenesulfonyl)-isobutyl-amino]-6-hydroxy-hexyl}-2-(3,3-dimethyl-ureido)-3,3-diphenyl-propionamide] | < 3.8
CC(C)CN([C@H](CO)CCCCNC(=O)[C@@H](NC(=O)OCc1ccccn1)C(c1ccccc1)c1ccccc1)S(=O)(=O)c1ccc(N)cc1 [Example 95, (1S,5S)-(1-{5-[(4-Amino-benzenesulfonyl)-isobutyl-amino]-6-hydroxy-hexylcarbamoyl}-2,2-diphenyl-ethyl)-carbamic Acid Pyridin-2-ylmethyl Ester] | < 3.8
CC(C)CN([C@H](CO)CCCCNC(=O)[C@@H](NC(=O)c1ccccn1)C(c1ccccc1)c1ccccc1)S(=O)(=O)c1ccc(N)cc1 [Example 96, (1S,5S)-Pyridine-2-carboxylic Acid (1-{5-[(4-Amino-benzenesulfonyl)-isobutyl-amino]-6-hydroxy-hexylcarbamoyl}-2,2-diphenyl-ethyl)-amide] | < 3.8
CC(C)CN([C@H](CO)CCCCNC(=O)[C@@H](NC(=O)c1cnccn1)C(c1ccccc1)c1ccccc1)S(=O)(=O)c1ccc(N)cc1 [Example 97, (1S,5S)-Pyrazine-2-carboxylic Acid (1-{5-[(4-Amino-benzenesulfonyl)-isobutyl-amino]-6-hydroxy-hexylcarbamoyl}-2,2-diphenyl-ethyl)-amide] | < 3.8
CC(C)CN([C@H](CO)CCCCNC(=O)[C@@H](NC(=O)c1ccc[nH]1)C(c1ccccc1)c1ccccc1)S(=O)(=O)c1ccc(N)cc1 [Example 98, (1S,5S)-Pyrrole-2-carboxylic Acid (1-{5-[(4-Amino-benzenesulfonyl)-isobutyl-amino]-6-hydroxy-hexylcarbamoyl}-2,2-diphenyl-ethyl)-amide] | < 3.8
CC(C)CN([C@H](CO)CCCCNC(=O)[C@@H](NC(=O)Cc1cccnc1)C(c1ccccc1)c1ccccc1)S(=O)(=O)c1ccc(N)cc1 [Example 99, (2S,5S)-N-{5-[(4-Amino-benzenesulfonyl)-isobutyl-amino]-6-hydroxy-hexyl}-3,3-diphenyl-2-(2-pyridin-3-yl-acetylamino)-propionamide] | < 3.8
CC(C)CN([C@H](CO)CCCCNC(=O)[C@@H](NC(=O)OCc1cccnc1)C(c1ccccc1)c1ccccc1)S(=O)(=O)c1ccc(N)cc1 [Example 100, (1S,5S)-(1-{5-[(4-Amino-benzenesulfonyl)-isobutyl-amino]-6-hydroxy-hexylcarbamoyl}-2,2-diphenyl-ethyl)-carbamic Acid Pyridin-3-ylmethyl Ester] | < 3.8
CC(C)CN([C@H](CO)CCCCNC(=O)[C@@H](NC(=O)OCc1ccncc1)C(c1ccccc1)c1ccccc1)S(=O)(=O)c1ccc(N)cc1 [Example 101, (1S,5S)-(1-{5-[(4-Amino-benzenesulfonyl)-isobutyl-amino]-6-hydroxy-hexylcarbamoyl}-2,2-diphenyl-ethyl)-carbamic Acid Pyridin-4-ylmethyl Ester] | < 3.8
CC(C)CN([C@H](CO)CCCCNC(=O)[C@@H](NC(=O)c1ccc(O)cc1)C(c1ccccc1)c1ccccc1)S(=O)(=O)c1ccc(N)cc1 [Example 102, (1S,5S)-N-(1-{5-[(4-Amino-benzenesulfonyl)-isobutyl-amino]-6-hydroxy-hexylcarbamoyl}-2,2-diphenyl-ethyl)-4-hydroxy-benzamide] | < 3.8
CC(C)CN([C@H](CO)CCCCNC(=O)[C@@H](NC(=O)c1ccc(O)c([N+](=O)[O-])c1)C(c1ccccc1)c1ccccc1)S(=O)(=O)c1ccc(N)cc1 [Example 103, (1S,5S)-N-(1-{5-[(4-Amino-benzenesulfonyl)-isobutyl-amino]-6-hydroxy-hexylcarbamoyl}-2,2-diphenyl-ethyl)-4-hydroxy-3-nitro-benzamide] | < 3.8
CC(C)CN([C@H](CO)CCCCNC(=O)[C@@H](NC(=O)c1ccccc1O)C(c1ccccc1)c1ccccc1)S(=O)(=O)c1ccc(N)cc1 [Example 104, (1S,5S)-N-(1-{5-[(4-Amino-benzenesulfonyl)-isobutyl-amino]-6-hydroxy-hexylcarbamoyl}-2,2-diphenyl-ethyl)-2-hydroxy-benzamide] | < 3.8
